Experimental data from PubChem BioAssay AID1259411 (Chemical Carcinogenesis Research Information System (CCRIS), 2018).
Activity calls are given as the source filed them. The rule behind the calls is not given here.

System: rodent carcinogenicity bioassays, tumor incidence
Assay: CCRIS carcinogenicity studies
Settings: Dose: 0, Dose: 0
Method in brief: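 Archive of carcinogenicity, mutagenicity, tumor promotion and tumor inhibition results drawn from journals, NCI reports and other sources, expert-reviewed; covers 1985-2011 and is no longer updated.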

SMILES: ClCCl
- carcinogen call (Species: HAMSTER, Strain/Sex: SYRIAN/FEMALE, Route: INHALATION, 500, 1500, 3500 PPM IN AIR 6H/D 5D/WK FOR 104 WK (STUDY DURATION: 2 YR), 500, 1500, 3500 PPM IN AIR 6H/D 5D/WK FOR 104 WK (STUDY DURATION: 2 YR)): inactive; negative
- carcinogen call (Species: HAMSTER, Strain/Sex: SYRIAN/MALE, Route: INHALATION, 500, 1500, 3500 PPM IN AIR 6H/D 5D/WK FOR 104 WK (STUDY DURATION: 2 YR), 500, 1500, 3500 PPM IN AIR 6H/D 5D/WK FOR 104 WK (STUDY DURATION: 2 YR)): inactive; negative
- carcinogen call (Species: MOUSE, Strain/Sex: B6C3F1/FEMALE, Route: INHALATION, 2000, 4000 PPM 6 HR/D, 5 D/WK FOR 102 WK, 2000, 4000 PPM 6 HR/D, 5 D/WK FOR 102 WK, Tumor Site: Type of Lesion: LUNG: ALVEOLAR/BRONCHIOLAR ADENOMA, ALVEOLAR/BRONCHIOLAR CARCINOMA, LIVER: HEPATOCELLULAR ADENOMA, HEPATOCELLULAR CARCIN): active; positive
- carcinogen call (Species: MOUSE, Strain/Sex: B6C3F1/FEMALE, Route: INHALATION, 2000 PPM 6 HR/D 5 D/WK FOR 26 WK FOLLOWED BY CHAMBER AIR EXPOSURE FOR 78 WK (STUDY DURATION: 104 WK), Tumor Site: Type of Lesion: LUNG: ADENOMA OR CARCINOMA): active; positive
- carcinogen call (Species: MOUSE, Strain/Sex: B6C3F1/FEMALE, Route: INHALATION, 2000 PPM 6 HR/D 5 D/WK FOR 26 WK FOLLOWING A 78 WK EXPOSURE TO CHAMBER AIR (STUDY DURATION: 104 WK)): inactive; negative
- carcinogen call (Species: MOUSE, Strain/Sex: B6C3F1/FEMALE, Route: INHALATION, 2000 PPM 6 HR/D 5 D/WK FOR 52 WK FOLLOWED BY CHAMBER AIR EXPOSURE FOR 52 WK (STUDY DURATION: 104 WK), Tumor Site: Type of Lesion: LUNG: ADENOMA OR CARCINOMA, LIVER: ADENOMA OR CARCINOMA): active; positive
- carcinogen call (Species: MOUSE, Strain/Sex: B6C3F1/FEMALE, Route: INHALATION, 2000 PPM 6 HR/D 5 D/WK FOR 52 WK FOLLOWING A 52 WK EXPOSURE TO CHAMBER AIR (STUDY DURATION: 104 WK)): inactive; negative
- carcinogen call (Species: MOUSE, Strain/Sex: B6C3F1/FEMALE, Route: INHALATION, 2000 PPM 6 HR/D 5 D/WK FOR 78 WK FOLLOWED BY CHAMBER AIR EXPOSURE FOR 26 WK (STUDY DURATION: 104 WK), Tumor Site: Type of Lesion: LUNG: ADENOMA OR CARCINOMA, LIVER: ADENOMA OR CARCINOMA): active; positive
- carcinogen call (Species: MOUSE, Strain/Sex: B6C3F1/FEMALE, Route: INHALATION, 2000 PPM 6 HR/D 5 D/WK FOR 78 WK FOLLOWING A 26 WK EXPOSURE TO CHAMBER AIR (STUDY DURATION: 104 WK), Tumor Site: Type of Lesion: LUNG: ADENOMA OR CARCINOMA, LIVER: ADENOMA OR CARCINOMA): active; positive
- carcinogen call (Species: MOUSE, Strain/Sex: B6C3F1/FEMALE, Route: INHALATION, 2000 PPM 6 HR/D 5 D/WK FOR 104 WK (STUDY DURATION: 104 WK), Tumor Site: Type of Lesion: LIVER: ADENOMA, CARCINOMA, LUNG: ADENOMA, CARCINOMA): active; positive
- carcinogen call (Species: MOUSE, Strain/Sex: B6C3F1/FEMALE, Route: INHALATION, 2000 PPM 6 HR/D 5 D/WK FOR 104 WK (STUDY DURATION: 104 WK), Tumor Site: Type of Lesion: LUNG: ADENOMA OR CARCINOMA, LIVER: ADENOMA OR CARCINOMA): active; positive
- carcinogen call (Species: MOUSE, Strain/Sex: B6C3F1/MALE, Route: INHALATION, 2000, 4000 PPM 6 HR/D, 5 D/WK FOR 102 WK, 2000, 4000 PPM 6 HR/D, 5 D/WK FOR 102 WK, Tumor Site: Type of Lesion: LUNG: ALVEOLAR/BRONCHIOLAR ADENOMA, ALVEOLAR/BRONCHIOLAR CARCINOMA, LIVER: HEPATOCELLULAR ADENOMA, HEPATOCELLULAR CARCIN): active; positive
- carcinogen call (Species: MOUSE, Strain/Sex: SWISS/FEMALE, Route: GAVAGE, 100, 500 MG/KG IN OLIVE OIL 1/D 5 D/WK FOR 64 WK (STUDY DURATION: LIFETIME), 100, 500 MG/KG IN OLIVE OIL 1/D 5 D/WK FOR 64 WK (STUDY DURATION: LIFETIME)): inactive; negative
- carcinogen call (Species: RAT, Strain/Sex: F344/FEMALE, Route: INHALATION, 1000, 2000, 4000 PPM 6 HR/D, 5 D/WK FOR 102 WK, 1000, 2000, 4000 PPM 6 HR/D, 5 D/WK FOR 102 WK, Tumor Site: Type of Lesion: MAMMARY GLAND: FIBROADENOMA, ADENOMA OR FIBROADENOMA, HEMATOPOIETIC SYSTEM (LEUKEMIA): MONONUCLEAR CELL LEUKEMIA): active; positive
- carcinogen call (Species: RAT, Strain/Sex: F344/MALE, Route: INHALATION, 1000, 2000, 4000 PPM 6 HR/D, 5 D/WK FOR 102 WK, 1000, 2000, 4000 PPM 6 HR/D, 5 D/WK FOR 102 WK, Tumor Site: Type of Lesion: MAMMARY GLAND: FIBROADENOMA, ADENOMA OR FIBROADENOMA, TUNICA VAGINALIS: MESOTHELIOMA, MULTIPLE SITES: MESOTHELIOMA, Tumor Site: Type of Lesion: MAMMARY GLAND: FIBROADENOMA, ADENOMA OR FIBROADENOMA, TUNICA VAGINALIS: MESOTHELIOMA, MULTIPLE SITES: MESOTHELIOMA): active; positive
- carcinogen call (Species: RAT, Strain/Sex: SPRAGUE-DAWLEY/FEMALE, Route: GAVAGE, 100, 500 MG/KG IN OLIVE OIL 1/D 5 D/WK FOR 64 WK (STUDY DURATION: LIFETIME), 100, 500 MG/KG IN OLIVE OIL 1/D 5 D/WK FOR 64 WK (STUDY DURATION: LIFETIME)): inactive; negative
- carcinogen call (Species: RAT, Strain/Sex: SPRAGUE-DAWLEY/FEMALE, Route: INHALATION, 100 PPM 4 HR/D 5 D/WK FOR 7 WK THEN 7 HR/D 5 D/WK FOR 97 WK BEGINNING WHEN RATS WERE 12 DAY OLD EMBRYOS (STUDY DURATI): inactive; negative
- carcinogen call (Species: RAT, Strain/Sex: SPRAGUE-DAWLEY/FEMALE, Route: INHALATION, 500, 1500, 3500 PPM IN AIR 6H/D 5D/WK FOR 104 WK (STUDY DURATION: 2 YR), 500, 1500, 3500 PPM IN AIR 6H/D 5D/WK FOR 104 WK (STUDY DURATION: 2 YR)): inactive; negative
- carcinogen call (Species: RAT, Strain/Sex: SPRAGUE-DAWLEY/MALE, Route: GAVAGE, 100, 500 MG/KG IN OLIVE OIL 1/D 5 D/WK FOR 64 WK (STUDY DURATION: LIFETIME), 100, 500 MG/KG IN OLIVE OIL 1/D 5 D/WK FOR 64 WK (STUDY DURATION: LIFETIME)): inactive; negative
- carcinogen call (Species: RAT, Strain/Sex: SPRAGUE-DAWLEY/MALE, Route: INHALATION, 100 PPM 4 HR/D 5 D/WK FOR 7 WK THEN 7 HR/D 5 D/WK FOR 97 WK BEGINNING WHEN RATS WERE 12 DAY OLD EMBRYOS (STUDY DURATI): inactive; negative
- carcinogen call (Species: RAT, Strain/Sex: SPRAGUE-DAWLEY/MALE, Route: INHALATION, 500, 1500, 3500 PPM IN AIR 6H/D 5D/WK FOR 104 WK (STUDY DURATION: 2 YR), 500, 1500, 3500 PPM IN AIR 6H/D 5D/WK FOR 104 WK (STUDY DURATION: 2 YR), Tumor Site: Type of Lesion: SALIVARY GLAND: SARCOMA): active; positive

SMILES: CCNc1nc(Cl)nc(NC(C)C)n1
- carcinogen call (Species: RAT, Strain/Sex: F344/FEMALE, Route: ORAL, 10, 70, 200, 400 PPM IN DIET FOR 24 MO (STUDY DURATION: 24 MO), 10, 70, 200, 400 PPM IN DIET FOR 24 MO (STUDY DURATION: 24 MO)): inactive; negative
- carcinogen call (Species: RAT, Strain/Sex: F344/LATI/FEMALE, Route: ORAL, 500, 1000 PPM TECHNICAL GRADE IN FEED FOR 8 WK THEN 0, 375, 750 PPM FOR LIFE SPAN (STUDY DURATION: LIFE SPAN), 500, 1000 PPM TECHNICAL GRADE IN FEED FOR 8 WK THEN 0, 375, 750 PPM FOR LIFE SPAN (STUDY DURATION: LIFE SPAN), Tumor Site: Type of Lesion: UTERUS: ADENOCARCINOMA, HEMATOPOIETIC SYSTEM: LEUKEMIA OR LYMPHOMA): active; positive
- carcinogen call (Species: RAT, Strain/Sex: F344/LATI/MALE, Route: ORAL, 500, 1000 PPM TECHNICAL GRADE IN FEED FOR 8 WK THEN 0, 375, 750 PPM FOR LIFE SPAN (STUDY DURATION: LIFE SPAN), 500, 1000 PPM TECHNICAL GRADE IN FEED FOR 8 WK THEN 0, 375, 750 PPM FOR LIFE SPAN (STUDY DURATION: LIFE SPAN), Tumor Site: Type of Lesion: MAMMARY GLAND: BENIGN TUMOR): active; positive
- carcinogen call (Species: RAT, Strain/Sex: SPRAGUE-DAWLEY/FEMALE, Route: ORAL, 70, 400 PPM IN DIET FOR 24 MO (STUDY DURATION: 24 MO), 70, 400 PPM IN DIET FOR 24 MO (STUDY DURATION: 24 MO)): inactive; negative

SMILES: CNC(=O)Oc1ccc2c(c1)[C@]1(C)CCN(C)[C@@H]1N2C
- carcinogen call (Species: RAT, Strain/Sex: SPRAGUE-DAWLEY/FEMALE (70/GROUP), Route: SUBCUTANEOUS (INGUINAL REGION), 3.3 UG/KG BW, 2/D FOR 5 D (STUDY DURATION: 28 MO), 3.3 UG/KG BW, 2/D FOR 5 D (STUDY DURATION: 28 MO), Tumor Site: Type of Lesion: MAMMARY GLAND: TUMOR): active; positive
